Assay results as given in US20230250106A1, “COMPOUNDS AND COMPOSITIONS FOR TREATING CONDITIONS ASSOCIATED WITH STING ACTIVITY” (IFM Due, Inc., priority 2020, published 2023).

The compounds below were run on STING pathway (assay: STING reporter assay: luciferase reporter activity in THP1-Dual KO-IFNAR2 cells activated with 2'3'cGAMP). Conditions: Homo sapiens, 2'3'cGAMP 15 μM, 24 h, read-out: hSTING EC50.
Assay type: cell-based
Outline: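 Luciferase secreted into the supernatant (QUANTI-Luc Plus read-out) was measured after 24 h at 37 °C. This was in THP1-Dual KO-IFNAR2 cells given test compounds (0.0017-100 μM final) plus Lipofectamine-transfected 2′3′cGAMP at 15 μM final; EC50 was then derived.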
`O=C(NCc1ccc(C(=O)Nc2c[nH]c3cc(F)c(F)cc23)cc1)OCc1cccnc1` [Compound 123, (pyridin-3-yl)methyl N-({4-[(5,6-difluoro-1H-indol-3-yl)carbamoyl]phenyl}methyl)carbamate] gave an EC50 of 1000 to 5000 nM.
`O=C(Nc1c[nH]c2cc(F)c(F)cc12)c1ccc(C2(O)CCC(F)(F)CC2)c(F)c1` [Compound 258, 4-(4,4-difluoro-1-hydroxycyclohexyl)-N-(5,6-difluoro-1H-indol-3-yl)-3-fluorobenzamide] showed an EC50 of 200 to 1000 nM.
Compound `O=C(Nc1c[nH]c2cc(F)c(F)cc12)c1ccc(OCC(F)(F)F)cc1Cl` [Compound 122, 2-chloro-N-(5,6-difluoro-1H-indol-3-yl)-4-(2,2,2-trifluoroethoxy)benzamide] has an EC50 of 200 to 1000 nM.
In the case of `CC(C)Oc1ccc(C(=O)Nc2c[nH]c3cc(F)c(F)cc23)cc1C(F)(F)F` [Compound 126, N-(5,6-difluoro-1H-indol-3-yl)-4-(propan-2-yloxy)-3-(trifluoromethyl)benzamide], the EC50 is reported as 200 to 1000 nM.
For `COC1(C)CN(c2ncc(C(=O)Nc3c[nH]c4cc(F)c(F)cc34)cc2C)C1` [Compound 183, N-(5,6-difluoro-1H-indol-3-yl)-6-(3-methoxy-3-methylazetidin-1-yl)-5-methylnicotinamide], the EC50 was 1000 to 5000 nM.
Compound `CCOc1ccc(C(=O)Nc2c[nH]c3cc(F)c(F)cc23)cc1` [Compound 147, N-(5,6-difluoro-1H-indol-3-yl)-4-ethoxybenzamide] has an EC50 of 200 to 1000 nM.
`O=C(Nc1c[nH]c2cc(F)c(F)cc12)c1ccc(CN2CC3(C2)CC(F)(F)C3)c(F)c1` [Compound 237, N-(5,6-difluoro-1H-indol-3-yl)-4-((6,6-difluoro-2-azaspiro[3.3]heptan-2-yl)methyl)-3-fluorobenzamide] was tested, and the EC50 was 200 to 1000 nM.
In the case of `O=C(Nc1c[nH]c2cc(F)c(F)cc12)c1ccnc(OC(F)F)c1` [Compound 106, N-(5,6-difluoro-1H-indol-3-yl)-2-(difluoromethoxy)pyridine-4-carboxamide], the EC50 is reported as 200 to 1000 nM.
`COCCCNc1ncc(C(=O)Nc2c[nH]c3cc(F)c(F)cc23)cc1C` [Compound 103, N-(5,6-difluoro-1H-indol-3-yl)-6-((3-methoxypropyl)amino)-5-methylnicotinamide] gave an EC50 of 5000 to 100000 nM.
Compound `O=C(Nc1c[nH]c2cc(F)c(F)cc12)c1ccc(OCCCC(F)(F)F)nc1` [Compound 138, N-(5,6-difluoro-1H-indol-3-yl)-6-(4,4,4-trifluorobutoxy)nicotinamide] has an EC50 of 200 to 1000 nM.
`COCCC1CCN(c2ncc(C(=O)Nc3c[nH]c4cc(F)c(F)cc34)cc2Cl)CC1` [Compound 163, 5-chloro-N-(5,6-difluoro-1H-indol-3-yl)-6-(4-(2-methoxyethyl)piperidin-1-yl)nicotinamide] showed an EC50 of 40 to 200 nM.
Compound `O=C(Nc1c[nH]c2cc(F)c(F)cc12)c1ccc(OCC2CC2)cc1` [Compound 130, 4-(cyclopropylmethoxy)-N-(5,6-difluoro-1H-indol-3-yl)benzamide] has an EC50 of 200 to 1000 nM.
`O=C(Nc1c[nH]c2cc(F)c(F)cc12)c1cccc(NCCCC(F)(F)F)n1` [Compound 277, N-(5,6-difluoro-1H-indol-3-yl)-6-((4,4,4-trifluorobutyl)amino)picolinamide] showed an EC50 of 5000 to 100000 nM.
`COc1ccc2[nH]cc(NC(=O)c3ccc(OCCCC(F)(F)F)c(F)c3)c2n1` [Compound 143, 3-fluoro-N-(5-methoxy-1H-pyrrolo[3,2-b]pyridin-3-yl)-4-(4,4,4-trifluorobutoxy)benzamide] showed an EC50 of 1000 to 5000 nM.
Compound `CC1(c2ccc(C(=O)Nc3c[nH]c4cc(F)c(F)cc34)cn2)CCN(CC(F)(F)F)CC1` [Compound 218, N-(5,6-difluoro-1H-indol-3-yl)-6-(4-methyl-1-(2,2,2-trifluoroethyl)piperidin-4-yl)nicotinamide] has an EC50 of 200 to 1000 nM.
Work on `CC(O)c1cc(C(=O)Nc2c[nH]c3cc(F)c(F)cc23)ccc1C(F)(F)F` (stereo not shown) [Compound 276, N-(5,6-difluoro-1H-indol-3-yl)-3-(1-hydroxyethyl)-4-(trifluoromethyl)benzamide] yielded an EC50 of 200 to 1000 nM.
`N#Cc1ccc2c(NC(=O)c3ccc(OCCCC(F)(F)F)c(F)c3)c[nH]c2c1` [Compound 104, N-(6-cyano-1H-indol-3-yl)-3-fluoro-4-(4,4,4-trifluorobutoxy)benzamide] was tested, and the EC50 was 1000 to 5000 nM.
Compound `O=C(Nc1c[nH]c2cc(F)c(F)cc12)c1ccc(C2(O)CCOCC2)cc1` [Compound 248, N-(5,6-difluoro-1H-indol-3-yl)-4-(4-hydroxytetrahydro-2H-pyran-4-yl)benzamide] has an EC50 of 5000 to 100000 nM.
Work on `O=C(Nc1c[nH]c2cc(F)c(F)cc12)c1cnc(N2C[C@@H]3[C@@H](COCC(F)(F)F)[C@@H]3C2)c(F)c1` [Compound 223, N-(5,6-difluoro-1H-indol-3-yl)-5-fluoro-6-((1R,5S,6r)-6-((2,2,2-trifluoroethoxy)methyl)-3-azabicyclo[3.1.0]hexan-3-yl)nicotinamide] yielded an EC50 of 40 to 200 nM.
`O=C(Nc1c[nH]c2cc(F)c(F)cc12)c1ccn(Cc2ccc(C(F)(F)F)cc2)c(=O)n1` [Compound 193, N-(5,6-difluoro-1H-indol-3-yl)-2-oxo-1-[[4-(trifluoromethyl)phenyl]methyl]pyrimidine-4-carboxamide] was tested, and the EC50 was 1000 to 5000 nM.
`Cc1cc(C(=O)Nc2c[nH]c3cc(F)c(F)cc23)cc(C2CCCCC2)n1` [Compound 186, 2-cyclohexyl-N-(5,6-difluoro-1H-indol-3-yl)-6-methylisonicotinamide] was tested, and the EC50 was 1000 to 5000 nM.
Compound `CCOc1c(F)ccc(C(=O)Nc2c[nH]c3cc(F)c(F)cc23)c1F` [Compound 198, N-(5,6-difluoro-1H-indol-3-yl)-3-ethoxy-2,4-difluorobenzamide] has an EC50 of 200 to 1000 nM.
Work on `O=C(Nc1c[nH]c2cc(F)c(F)cc12)c1cccc(OC2CCOCC2)n1` [Compound 124, N-(5,6-difluoro-1H-indol-3-yl)-6-(oxan-4-yloxy)pyridine-2-carboxamide] yielded an EC50 of 5000 to 100000 nM.
For `Cc1ncc(C(=O)Nc2c[nH]c3cc(F)c(F)cc23)cc1NCCCC(F)(F)F` [Compound 243, N-(5,6-difluoro-1H-indol-3-yl)-6-methyl-5-((4,4,4-trifluorobutyl)amino)nicotinamide], the EC50 was 200 to 1000 nM.
Work on `O=C(Nc1c[nH]c2ccc(Cl)cc12)c1cnc(N2C[C@@H]3[C@@H](COCC(F)(F)F)[C@@H]3C2)c(F)c1` [Compound 224, N-(5-chloro-1H-indol-3-yl)-5-fluoro-6-((1R,5S,6r)-6-((2,2,2-trifluoroethoxy)methyl)-3-azabicyclo[3.1.0]hexan-3-yl)nicotinamide] yielded an EC50 of 40 to 200 nM.
